Measurements reported in PMC4589238, “Acute Biphasic Effects of Ayahuasca” (PLoS ONE, 2015).
Where two headings read alike, the source gives them in different places.

Columns and labels:
[1] = Plasma concentrations of ayahuasca compounds and metabolites after oral ayahuasca (LC/MS/MS); format: in vivo, human; parameters: AUC (mean ± sd): unit not given here; settings: for Cmax / Tmax: both sexes, human, in vivo; for Cmax: po; for Detection in plasma samples: any plasma sample after oral ayahuasca
From the text: A sample of six liters of "Hoasca" was donated by the União do Vegetal (UDV) church in Brazil for the specific purpose of use in this study. Quantification of the main compounds in the brew was done with liquid chromatography-electrospray ionization-tandem mass spectrometry (LC/MS/MS). The screening included the following compounds: DMT, DMT‐N‐oxide (DMT-NO), N‐methyltryptamine (NMT), indoleacetic acid (IAA), 5‐hydroxy‐DMT (5-OH-DMT, or bufotenin), 5‐methoxy‐DMT (5-MeO-DMT), Harmine, Harmol, Harmaline, Harmalol, THH, 7‐hydroxy‐tetrahydroharmine (THH-OH), and 2‐methyl‐tetrahydro‐beta‐carboline (2-MTHBC). The original liquid volume was then reduced to 50% using a rotary evaporator to decrease the amount of liquid intake.
Blood was collected in sterile EDTA containing tubes. Ten blood samples (3 mL each) were collected every 25 minutes, starting 25 minutes before ayahuasca ingestion and ending 200 minutes after ingestion (in a total of ten samples for each individual). Blood was collected by a professional nurse, with a catheter that remained in place during the entire time of the study. Each tube was carefully and slowly turned upside-down three times and then stored at 0°C until all ten samples were collected. Blood samples were then centrifuged at 2000 rpm for 10 min at 4°C and the resulting plasma immediately collected and frozen at -80°C. The frozen plasma samples were stored at -80°C until shipped on dry ice to USA for analysis according to [31]. Compounds included in this screening were DMT, DMT-NO, NMT, IAA, 5-OH-DMT (bufotenin), 5-MeO-DMT, Harmine, Harmol, Harmaline, Harmalol, THH, THH-OH and 2-MTHBC.
Two volunteers opted out of blood collection, and data from one volunteer was discarded due to high hemolysis in the blood samples. Therefore data were available from 16 volunteers. Maximum plasma Concentration (Cmax), Time for maximum plasma concentration (Tmax) and area under the curve (AUC) of ten identified compounds are summarized in Table 2. […] No significant differences were found between men and women for any of the identified compounds in blood. […] There were no significant correlations between time to vomit and Cmax or AUC.

healthy volunteers = test: Association between plasma concentration and EEG spectral changes (generalized linear models); format: in vivo, human; settings: for Clusters between plasma concentration and EEG spectra: delta, theta and beta frequency bands; for Cohen's d, plasma concentration vs alpha band: left frontal electrodes
Protocol: Relationships between plasma concentration of identified compounds and spectral changes in the six frequency bands evaluated were calculated by fitting generalized linear models (glmfit function in MATLAB) for each compound and frequency band. This analysis was followed by the non-parametric cluster based correction with 5000 permutations.
Results were considered statistically significant when p <0.05. Effect sizes are also reported, using Partial eta squared (partial η^2) for the main frequency clusters and Cohen’s d for the generalized linear models.

[2] = cited from earlier work
5HT-2A receptors = settings: cited from earlier work
MAO-A = test system: MAO-A; parameters: method as in PMID 19879939; settings: cited from earlier work
human subjects = settings: cited from earlier work
[3] = plasma, 16 volunteers, oral ayahuasca, sampling to 200 min, read-out: Cmax (mean ± sd)
[4] = plasma, 16 volunteers, oral ayahuasca, read-out: Cmax (min—max)
[5] = plasma, 16 volunteers, oral ayahuasca, read-out: Tmax (mean ± sd) (converted)
[6] = plasma, 16 volunteers, oral ayahuasca
[7] = left centro-parieto-occipital electrodes
[8] = left fronto-central electrodes (F7 and FC5)
[9] = left parieto-occipital electrodes
[10] = one large widespread bilateral cluster
[11] = left fronto-temporal electrodes
[12] = from ayahuasca ingestion, group average curve, read-out: Time of peak plasma level in the group average (converted)
[13] = plasma, 16 volunteers, oral ayahuasca, sampling to 200 min
[14] = one right central electrode (C6)
[15] = bilateral parieto-occipital electrodes

Cc1[nH]ccc2c1[nH]c1cc(=O)ccc12 [Harmol]
Cmax [1, 3]: 85 ± 93.6 ng/mL | Cmax [1, 4]: < 319 ng/mL | Tmax [1, 5]: 2.47 h | AUC (min—max) [1, 6]: 0.00 to 1550.35 g·min/mL | Clusters between plasma concentration and EEG spectra (healthy volunteers): did not show any significant clusters | Cohen's d, plasma concentration vs alpha band power decrease (healthy volunteers; [7]): 0.0556 | Cohen's d, plasma concentration vs alpha band (healthy volunteers): 0.3029 | Cohen's d, plasma concentration vs slow-gamma power increase (healthy volunteers; [8]): 0.1250 | Cohen's d, plasma concentration vs slow-gamma power increase (healthy volunteers; [9]): 0.2921 | Cohen's d, plasma concentration vs fast-gamma power increase (healthy volunteers; [10]): 0.0463 | Cohen's d, plasma concentration vs slow-gamma power increase (healthy volunteers; right frontal electrodes): 0.2747 | Cohen's d, plasma concentration vs slow-gamma power increase (healthy volunteers; right parietal electrodes): 0.0941

CC1=NCCc2c1[nH]c1cc(O)ccc21 [Harmalol]
Cmax [1, 3]: 17.2 ± 13.6 ng/mL | Cmax [1, 4]: 3.11 to 48.5 ng/mL | Tmax [1, 5]: 2.08 h | AUC (min—max) [1, 6]: 9.91 to 204.99 g·min/mL | Clusters between plasma concentration and EEG spectra (healthy volunteers): did not show any significant clusters | Cohen's d, plasma concentration vs alpha band power decrease (healthy volunteers; left centro-parietal electrodes): 0.0673 | Cohen's d, plasma concentration vs slow-gamma power increase (healthy volunteers; [8]): 0.0707 | Cohen's d, plasma concentration vs fast-gamma power increase (healthy volunteers; [11]): 0.1479 | Cohen's d, plasma concentration vs alpha band power decrease (healthy volunteers; [9]): 0.1056 | Cohen's d, plasma concentration vs slow-gamma power increase (healthy volunteers; [9]): 0.0542 | Cohen's d, plasma concentration vs fast-gamma power increase (healthy volunteers; right frontal electrodes): 0.0785 | Cohen's d, plasma concentration vs slow-gamma power increase (healthy volunteers; right frontal electrodes): 0.001

CN(C)CCc1c[nH]c2ccccc12 [DMT, N,N-dimethyltryptamine]
Cmax [1, 3]: 25.4 ± 16.8 ng/mL | Cmax [1, 4]: 2.49 to 65.9 ng/mL | Tmax [1, 12]: 1.25 h | Tmax [1, 5]: 2.21 h | AUC (min—max) [1, 6]: 9.52 to 219.10 g·min/mL | Cohen's d, plasma concentration vs fast-gamma power increase (healthy volunteers; bilateral temporo-parieto-occipital electrodes): 0.0309 | Cohen's d, plasma concentration vs alpha band power decrease (healthy volunteers; [7]): 0.0822 | Cohen's d, plasma concentration vs slow-gamma power increase (healthy volunteers; [7]): 0.0125 | Cohen's d, plasma concentration vs beta power increase (healthy volunteers; [8]): 0.1131 | Cohen's d, plasma concentration vs fast-gamma power increase (healthy volunteers; [11]): 0.0193 | Cohen's d, plasma concentration vs slow-gamma power increase (healthy volunteers; [11]): 0.0966 | Cohen's d, plasma concentration vs delta band increase (healthy volunteers; left fronto-temporal electrodes (FT9, F7 and FT7)): 0.2962 | Cohen's d, plasma concentration vs fast-gamma power increase (healthy volunteers; right frontal electrodes): 0.1366 | Cohen's d, plasma concentration vs slow-gamma power increase (healthy volunteers; right frontal electrodes): 0.0161 | Cohen's d, plasma concentration vs delta band increase (healthy volunteers; right frontal electrodes (AF4 and F2)): 0.2100

COc1ccc2c3c([nH]c2c1)[C@@H](C)NCC3 [THH, tetrahydroharmine]
Time to reach plateau of plasma level in the group average ([1]; from ayahuasca ingestion, group average curve): 150 min | AUC (mean ± sd) [1, 6]: 1262.09 ± 1270.39 | AUC (min—max) [1, 6]: 75.01 to 3762.73 g·min/mL | Cmax (min—max) [1, 6]: 22.62 to 895.70 ng/mL | Tmax (mean ± sd) [1, 6]: 190.63 ± 42.70 min | Cmax (mean ± sd) [1, 13]: 328.76 ± 324.86 ng/mL | Cohen's d, plasma concentration vs slow-gamma power increase (healthy volunteers; bilateral parieto-occipital cluster): 0.0656 | Clusters between plasma concentration and EEG spectra (healthy volunteers): did not show any significant clusters | Cohen's d, plasma concentration vs alpha band power decrease (healthy volunteers; left fronto-centro-parieto-occipital cluster extending to some right centro-parietal electrodes): 0.0044 | Cohen's d, plasma concentration vs slow-gamma power increase (healthy volunteers; left fronto-temporo-central electrodes): 0.0795 | Cohen's d, plasma concentration vs fast-gamma power increase (healthy volunteers; [10]): 0.0501 | Cohen's d, plasma concentration vs slow-gamma power increase (healthy volunteers; right frontal electrodes): 0.0366 | Recovery in 24 h urine as THH and THH-OH ([2]; after ingestion of ayahuasca): 9% | Half-life [2]: ~9 h | Affinity for 5HT-2A receptors (5HT-2A receptors): moderate affinity

CN(C)CCc1c[nH]c2ccc(O)cc12 [5-OH-DMT, 5‐hydroxy‐DMT]
Detection in plasma samples [1]: never detected

CC1NCCc2c1[nH]c1cc(O)ccc21 (centres unmarked) [THH-OH, 7‐hydroxy‐tetrahydroharmine]
AUC (min—max) [1, 6]: 0.00 to 284.32 g·min/mL | Cmax (min—max) [1, 6]: 0.00 to 111.01 ng/mL | Tmax (mean ± sd) [1, 6]: 119.64 ± 53.87 min | Cmax (mean ± sd) [1, 13]: 22.58 ± 26.76 ng/mL | Clusters between plasma concentration and alpha band (healthy volunteers): No significant clusters | Cohen's d, plasma concentration vs delta band power increase (healthy volunteers; one left frontal electrode (F7)): 0.2644 | Cohen's d, plasma concentration vs delta band power increase (healthy volunteers; [14]): 0.0269 | Cohen's d, plasma concentration vs theta band power increase (healthy volunteers; [14]): 0.2630 | Clusters between plasma concentration and slow-gamma frequency band (healthy volunteers; slow-gamma band): No significant clusters

COc1ccc2c(c1)[nH]c1c(C)nccc12 [Harmine]
Cmax [1, 3]: 110 ± 138 ng/mL | Tmax [1, 12]: 0.833 h | Tmax [1, 5]: 2.5 h | AUC (min—max) [1, 6]: 21.37 to 2325.28 g·min/mL | Clusters between plasma concentration and EEG spectra (healthy volunteers): did not show any significant clusters | Cohen's d, plasma concentration vs slow-gamma power increase (healthy volunteers; left centro-frontal electrodes (F7, FC5, C5 and C3)): 0.2028 | Cohen's d, plasma concentration vs alpha band power decrease (healthy volunteers; [7]): 0.0297 | Cohen's d, plasma concentration vs slow-gamma power increase (healthy volunteers; [9]): 0.1797 | Cohen's d, plasma concentration vs fast-gamma power increase (healthy volunteers; [10]): 0.0312 | Cohen's d, plasma concentration vs slow-gamma power increase (healthy volunteers; right frontal electrodes): 0.0024 | Cohen's d, plasma concentration vs slow-gamma power increase (healthy volunteers; right parietal electrodes): 0.1208 | Potency at inhibiting MAO-A relative to MAO-B (MAO-A): 10,000 fold | Effects in humans (human subjects; 120 mg orally): barely-perceptible sedative effects | Effects in humans (human subjects; 10 to 20 mg/kg i.m.): effects qualitatively similar to LSD or mescaline | Psychoactive dose (human subjects; i.v.): ≥ 200 mg | Affinity for 5HT-2A receptors (5HT-2A receptors): moderate affinity

CNCCc1c[nH]c2ccccc12 [NMT, N‐methyltryptamine]
Cmax [1, 3]: 3.1 ± 2.12 ng/mL | Cmax [1, 4]: 0.57 to 7.56 ng/mL | Tmax [1, 5]: 2.03 h | AUC (min—max) [1, 6]: 1.52 to 21.69 g·min/mL | Clusters between plasma concentration and alpha band (healthy volunteers): No significant clusters | Cohen's d, plasma concentration vs slow-gamma power increase (healthy volunteers; bilateral frontal electrodes): 0.0822 | Cohen's d, plasma concentration vs fast-gamma power increase (healthy volunteers; bilateral fronto-central electrodes): 0.0290 | Cohen's d, plasma concentration vs fast-gamma power increase (healthy volunteers; [15]): 0.0911 | Clusters between plasma concentration and delta band (healthy volunteers): not significant | Cohen's d, plasma concentration vs beta power increase (healthy volunteers; left frontal electrodes (F7, AF7, AF3, AFz)): 0.0863 | Cohen's d, plasma concentration vs slow-gamma power increase (healthy volunteers; occipital electrodes (O1, Oz and O2)): 0.2579 | Cohen's d, plasma concentration vs slow-gamma power increase (healthy volunteers; right parietal electrodes): 0.1538

COc1ccc2[nH]cc(CCN(C)C)c2c1 [5-MeO-DMT, 5‐methoxy‐DMT]
Detection in plasma samples [1]: never detected

CN1CCc2c([nH]c3ccccc23)C1 [2-MTHBC, 2‐methyl‐tetrahydro‐beta‐carboline]
Detection in plasma samples [1]: never detected

O=C(O)Cc1c[nH]c2ccccc12 [IAA, indoleacetic acid]
AUC (min—max) [1, 6]: 1237.81 to 7726.25 g·min/mL | Cmax (min—max) [1, 6]: 61.35 to 1674.57 ng/mL | Tmax (mean ± sd) [1, 6]: 175.00 ± 39.79 min | Cmax (mean ± sd) [1, 13]: 717.72 ± 454.50 ng/mL | Clusters between plasma concentration and beta band (healthy volunteers): No significant clusters | Clusters between plasma concentration and delta band (healthy volunteers): not significant | Cohen's d, plasma concentration vs alpha band (healthy volunteers): 0.2888 | Cohen's d, plasma concentration vs slow-gamma (healthy volunteers; right centro-frontal electrodes (F2, FCz, FC2, FC4)): 0.0052 | Cohen's d, plasma concentration vs fast-gamma power increase (healthy volunteers; right frontal electrodes): 0.0737 | Cohen's d, plasma concentration vs fast-gamma (healthy volunteers; right parietal electrodes (CP2, Pz, P2, P4)): 0.1428

C[N+](C)([O-])CCc1c[nH]c2ccccc12 [DMT-NO, DMT‐N‐oxide]
AUC (mean ± sd) [1, 6]: 60.37 ± 57.60 | AUC (min—max) [1, 6]: 5.21 to 191.29 g·min/mL | Cmax (min—max) [1, 6]: 1.58 to 40.60 ng/mL | Tmax (mean ± sd) [1, 6]: 110.94 ± 37.60 min | Cmax (mean ± sd) [1, 13]: 14.42 ± 12.50 ng/mL | Clusters between plasma concentration and beta band (healthy volunteers): No significant clusters | Cohen's d, plasma concentration vs fast-gamma power increase (healthy volunteers; [15]): 0.0003 | Clusters between plasma concentration and delta band (healthy volunteers): not significant | Cohen's d, plasma concentration vs fast-gamma power increase (healthy volunteers; left centro-frontal electrodes): 0.1917 | Cohen's d, plasma concentration vs slow-gamma power increase (healthy volunteers; left centro-parieto-occipital extending to right parietal electrodes): 0.0593 | Cohen's d, plasma concentration vs alpha band power decrease (healthy volunteers; left centro-parieto-occipital extending to some left frontal electrodes): 0.0610 | Cohen's d, plasma concentration vs slow-gamma power increase (healthy volunteers; right centro-temporal electrodes (C6, T8 and TP8)): 0.0052 | Cohen's d, plasma concentration vs fast-gamma power increase (healthy volunteers; right centro-temporo-frontal electrodes): 0.0269 | Cohen's d, plasma concentration vs slow-gamma power increase (healthy volunteers; right frontal electrodes): 0.0061 | Cohen's d, plasma concentration vs alpha band power decrease (healthy volunteers; right fronto-temporal electrodes (FC6, FT8 and FT10)): 0.1341
